Measurements reported in patent publication US10550073B2, “Benzamide derivative” (CSPC ZHONGQI PHARMACEUTICAL TECHNOLOGY (SHIJIAZHUANG) CO., …, priority 2015, dated 2020).

What was measured:
p38a = p38a (Homo sapiens (Human), UniProt Q16539); assay: Assay of p38 kinase activity (fluorescence, peptide substrate); type: biochemical; settings: 40 nM p38a, 100 μM ATP, 90 minutes
Description: II. Assay of p38 Kinase Activity
Experimental Method: 40 nM p38a was added into a reaction buffer, which include 20 mM HEPES (4-hydroxyethylpiperazine ethanesulfonic acid), 5 mM MgCl2 and 1 mM DTT (dithiothreitol) at pH 7.4. 40 μM phosphorylated peptide substrate was added, followed by different concentrations of drugs and 100 μM ATP (adenosine triphosphate), and reacted for 90 minutes in dark. […] The IC50 values of the compounds were obtained according to the fluorescence values.

TNF-α = assay: In vitro cell experiment: LPS-stimulated TNF-α release in THP-1 cells (ELISA); type: cell-based; settings: Homo sapiens; TNF-α in supernatant of THP-1 cells, compound 2 h then LPS 10 μg/ml 2 h
Source text: I. In Vitro Cell Experiment
Cells: human monocytic leukemia THP-1 cells (obtained from the Shanghai Cell Bank of Chinese Academy of Sciences).
Lipopolysaccharides: from Escherichia coli O55: B5, L2880 (Sigma).
Kit: Human TNF-α Elisa MAX Deluxe Set, 430206 (Biolegend)

Sequence of p38a (Q16539 whole entry): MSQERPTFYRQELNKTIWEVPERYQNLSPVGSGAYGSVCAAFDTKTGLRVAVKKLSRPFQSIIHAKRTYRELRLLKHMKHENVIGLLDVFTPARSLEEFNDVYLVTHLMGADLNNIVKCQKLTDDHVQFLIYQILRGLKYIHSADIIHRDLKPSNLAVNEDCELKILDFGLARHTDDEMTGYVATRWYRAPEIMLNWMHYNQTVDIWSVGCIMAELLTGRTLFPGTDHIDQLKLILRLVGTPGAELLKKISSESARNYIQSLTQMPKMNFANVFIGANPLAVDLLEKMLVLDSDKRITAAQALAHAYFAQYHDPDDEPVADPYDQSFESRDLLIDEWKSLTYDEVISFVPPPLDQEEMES

SMILES | IC50 (p38a) [nM] | IC50 (TNF-α) [nM]
CCCCCNC(=O)c1ccc(-c2cc(C(=O)NC3CC3)cc(F)c2C)nc1 [Example 9, 6-(5-(cyclopropylcarbamoyl)-3-fluoro-2-methylphenyl)-N-pentylnicotinamide] | 5 to 10 | 5 to 10
Cc1c(F)cc(C(=O)NC2CC2)cc1-c1ccc(C(=O)NC2CCCCC2)cn1 [Example 10, N-cyclohexyl-6-(5-(cyclopropylcarbamoyl)-3-fluoro-2-methylphenyl) nicotinamide] |  | < 5
Cc1c(F)cc(C(=O)NC2CC2)cc1-c1ccc(C(=O)N2CCCCCC2)cn1 [Example 14] |  | 5 to 10
Cc1c(F)cc(C(=O)NC2CC2)cc1-c1ccc(C(=O)NCC(C)C)nc1 [Example 15, 5-(5-(cyclopropylcarbamoyl)-3-fluoro-2-methylphenyl)-N-isobutylpyridin-2-formamide] | < 5 | < 5
Cc1c(F)cc(C(=O)NC2CC2)cc1-c1ccc(C(=O)NC2CCCC2)nc1 [Example 17, N-cyclopentyl-5-(5-(cyclopropylcarbamoyl)-3-fluoro-2-methylphenyl)pyridin-2-foramamide] |  | < 5
CCCN(CCC)C(=O)c1ccc(-c2cc(C(=O)NC3CC3)cc(F)c2C)cc1 [Example 20, N^3-cyclopropyl-5-fluoro-6-methyl-N^4′,N^4′-dipropyl-[1,1′-biphenyl]-3,4′-dicarboxamide] |  | 5 to 10
Cc1c(F)cc(C(=O)NC2CC2)cc1-c1ccc(C(=O)NC2CCCC2)cc1 [Example 22] |  | < 5
Cc1c(F)cc(C(=O)NC2CC2)cc1-c1ccc(C(=O)N(C)C2CCCC2)cc1 [Example 23, N^4′-cyclopentyl-N^3-cyclopropyl-5-fluoro-N^4′,6-dimethyl-[1,1′-biphenyl]-3,4′-dicarboxamide] |  | 5 to 10
Cc1c(F)cc(C(=O)NC2CC2)cc1-c1ccc(C(=O)NC2CCCCC2)cc1 [Example 24, N^4′-cyclohexyl-N^3-cyclopropyl-5-fluoro-6-methyl-[1,1′-biphenyl]-3,4′-dicarboxamide] |  | 5 to 10
Cc1c(F)cc(C(=O)NC2CC2)cc1-c1ccc(C(=O)N(C)C2CCCCC2)cc1 [Example 25, N^4′-cyclohexyl-N^3-cyclopropyl-5-fluoro-N^4′,6-dimethyl-[1,1′-biphenyl]-3,4′-dicarboxamide] | 5 to 10 | < 5
Cc1c(F)cc(C(=O)NC2CC2)cc1-c1ccc(C(=O)N2CCC(C)CC2)cc1 [Example 26, N-cyclopropyl-5-fluoro-6-methyl-4′-(4-methylpiperidin-1-carbonyl)-[1,1′-biphenyl]-3-carboxamide] |  | 5 to 10
Cc1c(F)cc(C(=O)NC2CC2)cc1-c1ccc(C(=O)N2CCCCCC2)cc1 [Example 28, 4′-(azepane-1-carbonyl)-N-cyclopropyl-5-fluoro-6-methyl-[1,1′-biphenyl]-3-carboxamide] |  | 5 to 10
Cc1c(F)cc(C(=O)NC2CC2)cc1-c1ccc(C(=O)NCC(C)C)c(F)c1 [Example 30, N^3-cyclopropyl-3′,5-difluoro-N^4′-isobutyl-6-methyl-[1,1′-biphenyl]-3,4′-dicarboxamide] | < 5 | < 5
Cc1c(F)cc(C(=O)NC2CC2)cc1-c1ccc(C(=O)N(C)CC(C)C)c(F)c1 [Example 31, N^3-cyclopropyl-3′,5-difluoro-N^4′-isobutyl-N^4′,6-dimethyl-[1,1′-biphenyl]-3,4′-dicarboxamide] | < 5 | < 5
Cc1c(F)cc(C(=O)NC2CC2)cc1-c1ccc(C(=O)NC2CCCC2)c(F)c1 [Example 32, N^4′-cyclopentyl-N^3-cyclopropyl-3′,5-difluoro-6-methyl-[1,1′-biphenyl]-3,4′-dicarboxamide] | < 5 | < 5
Cc1c(F)cc(C(=O)NC2CC2)cc1-c1ccc(C(=O)N(C)C2CCCC2)c(F)c1 [Example 33, N^4′-cyclopentyl-N^3-cyclopropyl-3′,5-difluoro-N^4′,6-dimethyl-[1,1′-biphenyl]-3,4′-dicarboxamide] |  | < 5
CCC(C)(C)NC(=O)c1ccc(-c2cc(C(=O)NC3CC3)cc(F)c2C)cc1N [Example 41, 3′-amino-N^3-cyclopropyl-5-fluoro-6-methyl-N^4′-(tertpentyl)-[1,1′-biphenyl]-3,4′-dicarboxamide] |  | < 5
Cc1c(F)cc(C(=O)NC2CC2)cc1-c1ccc(NC(=O)C2CCCCC2)c(F)c1 [Example 47, 4′-(cyclohexanecarboxamido)-N-cyclopropyl-3′,5-difluoro-6-methyl-[1,1′-biphenyl]-3-carboxamide] |  | 5 to 10
Cc1cc(-c2cc(C(=O)NC3CC3)cc(F)c2C)ccc1NC(=O)NC1CCCC1 [Example 50, 4′-(3-cyclopentylureido)-N-cyclopropyl-5-fluoro-3′,6-dimethyl-[1,1′-biphenyl]-3-carboxamide] |  | < 5
Cc1c(F)cc(C(=O)NC2CC2)cc1-c1ccc2nc(NCC(C)C)sc2c1 [Example 51, N-cyclopropyl-3-fluoro-5-(2-(isobutylamino)benzo[d]thiazol-6-yl)-4-methylbenzamide] | 5 to 10 | < 5
CCCCNc1nc2ccc(-c3cc(C(=O)NC4CC4)cc(F)c3C)cc2s1 [Example 52, 3-(2-(butylamino)benzo [d]thiazol-6-yl)-N-cyclopropyl-5-fluoro-4-methylbenzamide] | 5 to 10 | 5 to 10
Cc1c(F)cc(C(=O)NC2CC2)cc1-c1ccc2nc(NC3CCCC3)sc2c1 [Example 54, 3-(2-(cyclopentylamino)benzo[d]thiazol-6-yl)-N-cyclopropyl-5-fluoro-4-methylbenzamide] |  | 5 to 10
Cc1c(F)cc(C(=O)NC2CC2)cc1-c1ccc(C(=O)N2CCCCC2)s1 [Example 55, N-cyclopropyl-3-fluoro-4-methyl-5-(5-(piperidin-1-carbonyl)thiophen-2-yl) benzamide] | 5 to 10 | 5 to 10
Cc1c(F)cc(C(=O)NC2CC2)cc1-c1ccc(C(=O)N2CCC(C)CC2)s1 [Example 56, N-cyclopropyl-3-fluoro-4-methyl-5-(5-(4-methylpiperidin-1-carbonyl)thiophen-2-yl)benzamide] | 5 to 10 | 5 to 10
Cc1c(F)cc(C(=O)NC2CC2)cc1-c1ccc(C(=O)NCCC(C)C)nn1 [Example 60, 6-(5-(cyclopropylcarbamoyl)-3-fluoro-2-methylphenyl)-N-isopentylpyridazin-3-carboxamide] | < 5 | 5 to 10
Cc1c(F)cc(C(=O)NC2CC2)cc1-c1ccc(C(=O)N(C)C2CCCCC2)nn1 [Example 62] | < 5 | 5 to 10
C=CCNC(=O)c1cc(F)c(C)c(-c2ccc(C(=O)NC3CCCC3)nn2)c1 [Example 79, 6-(5-(allylcarbamoyl)-3-fluoro-2-methylphenyl)-N-cyclopentylpyridazin-3-carboxamide] | < 5 | 5 to 10
C=CCNC(=O)c1cc(F)c(C)c(-c2ccc(C(=O)NC3CCCCC3)nn2)c1 [Example 80, 6-(5-(allylcarbamoyl)-3-fluoro-2-methylphenyl)-N-cyclohexylpyridazin-3-carboxamide] | < 5 | 5 to 10
C=CCNC(=O)c1cc(F)c(C)c(-c2ccc(C(=O)NCC(C)(C)C)cn2)c1 [Example 81, 6-(5-(allylcarbamoyl)-3-fluoro-2-methylphenyl)-N-neopentylnicotinamide] |  | 5 to 10
